Values after ≈ are worked out from the molar mass of the structure shown.
Tests used:
Type in all cases: physicochemical
[1] = Stability test (stress factors): change of appearance
[2] = Stability test (stress factors): content determination by HPLC
[3] = Solubility in water at 25℃; details: H2O
[4] = high temperature and high humidity
[5] = 7 days, high temperature and high humidity

Row | SMILES | change of colour/appearance (in words) [1, 4] | change of colour/appearance (in words) ([1]; sealed, high temperature) | content remaining [2, 5] | change of content with time (in words) ([2]; sealed high temperature, and high temperature with high humidity) | moisture absorption (in words) ([1]; high temperature and high humidity, concluded from colour change and caking) | solubility [3] | stability (in words) [2, 4] | remaining at 168 h ([2]; high temperature and humidity storage, 7 days, high temperature and high humidity)
1 | CCCCCCOC(=O)N=C(N)c1ccc(NCc2nc3cc(C(=O)N(CCC(=O)OCC)c4ccccn4)ccc3n2C)cc1.O=C(O)CCC(=O)C(=O)O [达比加群酯2-酮戊二酸盐晶型I, 3-[[[2-[[[4-[[[(己氧基)羰基]氨基]亚氨甲基]苯基]氨基]甲基]-1-甲基-1H-苯并咪唑-5-基]羰基](吡啶-2-基)氨基]丙酸乙酯2-酮戊二酸盐] | 颜色虽有变化但不大 | 颜色几乎无变化 | ~98% | 含量随时间变化较小 | – | – | – | –
2 | CCCCCCOC(=O)NC(=N)c1ccc(NCc2nc3cc(C(=O)N(CCC(=O)OCC)c4ccccn4)ccc3n2C)cc1 [达比加群酯甲磺酸盐] | 颜色变化很明显且出现板结现象 | 颜色随时间产生明显变化 | < 20% | – | 吸潮严重 | 1800 µg/mL (≈ 2870 µM) | 极不稳定 | < 20%

Reference: patent publication CN105732584A, “一种达比加群酯2-酮戊二酸盐晶型i及其制备方法和用途” (Tianjin Institute of Pharmaceutical Research Co Ltd, priority 2014, dated 2016)
